Results taken from US7192581B2, “Lactobacillus reuteri useful as probiotics” (Probionic Corp., priority 2001, dated 2007).
Values after ≈ are worked out from the molar mass of the structure shown. Read-outs that look alike come from different tables or passages of the source.

Tested on: #Probio-16
Assay: Antibiotic susceptibility of #Probio-16 (paper disc)
Type: cell-based, Lactobacillus reuteri
Description: Antibiotic susceptibility of #Probio-16 was assayed according to Microbiology procedures handbook vol. 1 (Henry D. Isenberg, ASM) and Korean Pat. Publication No. 91-4366. In this regard, 13 antibiotics, that is, cephalexcin, erythromycin, flumequinine, furazolidine, gentamycin, procaine, penicillin G, norflaxacine, spectinomycin, tetracycline, tiamuline, neomycin, chloramphenicol, and kanamycin, were dissolved in appropriate solvents. By concentrations, the prepared antibiotic solutions were inoculated in an amount of 30 μl onto a paper disc which was then allowed to stand for 1 hour at 4° C. Inhibitory circles emerging after 24 hours of anaerobic incubation were measured.
Assay of #Probio-16 for antibiotic susceptibility was conduced according to Microbiology Procedures Handbook vol. 1 (Henry D. Isenberg, ASM) and Korean Pat. Publication No. 91-4366, with regard to 13 antibiotics, including cephalexcin, erythromycin, flumequinine, furazolidine, gentamycin, procaine, penicillin G, norflaxacine, spectinomycin, tetracycline, tiamuline, neomycin, chloramphenicol, and kanamycin. By concentrations, antibiotic solutions were inoculated in an amount of 30 μl onto a paper disc which was then allowed to stand for 1 hour at 4° C. Inhibitory circles emerging after 24 hours of anaerobic incubation were measured.

[1] = against #Probio-16, 24 hours anaerobic incubation (Table 3)
[2] = against Lactobacillus reuteri Probio-16
[3] = Limosilactobacillus reuteri, against #Probio-16, 24 hours anaerobic incubation (Table 3), read-out: MIC
[4] = Limosilactobacillus reuteri, against Lactobacillus reuteri Probio-16, read-out: minimal inhibitory concentration (MIC)
[5] = against Lactobacillus reuteri Probio-16 (unit not given)

## CC1=C(C(=O)O)N2C(=O)[C@@H](NC(=O)[C@H](N)c3ccccc3)[C@H]2SC1 [Cephalexcin]
[1]
  MIC: 90 µg/mL (≈ 259 µM)
[2]
  minimal inhibitory concentration (MIC): 90 µg/mL (≈ 259 µM)

## O=C(N[C@H](CO)[C@H](O)c1ccc([N+](=O)[O-])cc1)C(Cl)Cl [Chloramphenicol]
[3]
  MIC: 200 µg/mL (≈ 619 µM)
[4]
  MIC: 200 µg/mL (≈ 619 µM)

## CC[C@H]1OC(=O)[C@H](C)[C@@H](O[C@H]2C[C@@](C)(OC)[C@@H](O)[C@H](C)O2)[C@H](C)[C@@H](O[C@@H]2O[C@H](C)C[C@H](N(C)C)[C@H]2O)[C@](C)(O)C[C@@H](C)C(=O)[C@H](C)[C@@H](O)[C@]1(C)O [Erythromycin]
[3]
  MIC: 4 µg/mL (≈ 5.45 µM)
[4]
  MIC: 4 µg/mL (≈ 5.45 µM)

## CC1CCc2cc(F)cc3c(=O)c(C(=O)O)cn1c23 (centres unmarked) [Flumequinine]
[1]
  MIC: 4000 µg/mL (≈ 15300 µM)
[2]
  minimal inhibitory concentration (MIC): 4,000 μg/ml

## O=C1OCCN1/N=C/c1ccc([N+](=O)[O-])o1 [Furazolidine]
[1]
  MIC: 90 µg/mL (≈ 400 µM)
[2]
  minimal inhibitory concentration (MIC): 90 µg/mL (≈ 400 µM)

## NC[C@H]1O[C@H](O[C@H]2[C@H](O)[C@@H](O[C@H]3O[C@H](CO)[C@@H](O)[C@H](N)[C@H]3O)[C@H](N)C[C@@H]2N)[C@H](O)[C@@H](O)[C@@H]1O [Kanamycine]
[3]
  MIC: 4000 µg/mL (≈ 8260 µM)
[4]
  MIC: 4000 µg/mL (≈ 8260 µM)

## NC[C@@H]1O[C@H](O[C@H]2[C@@H](O)[C@H](O[C@@H]3[C@@H](O)[C@H](N)C[C@H](N)[C@H]3O[C@H]3O[C@H](CN)[C@@H](O)[C@H](O)[C@H]3N)O[C@@H]2CO)[C@H](N)[C@@H](O)[C@@H]1O [Neomycine]
[1]
  MIC: 100 µg/mL (≈ 163 µM)
[2]
  minimal inhibitory concentration (MIC): 100 µg/mL (≈ 163 µM)

## CCn1cc(C(=O)O)c(=O)c2cc(F)c(N3CCNCC3)cc21 [Norflaxacine]
[1]
  MIC: 1000 µg/mL (≈ 3130 µM)
[5]
  minimal inhibitory concentration (MIC): 100

## CN[C@@H]1[C@H](O)[C@H](NC)[C@H]2O[C@@]3(O)C(=O)C[C@@H](C)O[C@H]3O[C@@H]2[C@H]1O [Spectinomycine]
[3]
  MIC: 2500 µg/mL (≈ 7520 µM)
[4]
  MIC: 2500 µg/mL (≈ 7520 µM)

## CN(C)[C@@H]1C(O)=C(C(N)=O)C(=O)[C@@]2(O)C(O)=C3C(=O)c4c(O)cccc4[C@@](C)(O)[C@H]3C[C@@H]12 [Tetracycline]
[3]
  MIC: 1500 µg/mL (≈ 3380 µM)
[4]
  MIC: 1500 µg/mL (≈ 3380 µM)

## C=C[C@]1(C)C[C@@H](OC(=O)CSCCN(CC)CC)[C@]2(C)[C@H](C)CC[C@]3(CCC(=O)[C@H]32)[C@@H](C)[C@@H]1O [Tiamuline]
[3]
  MIC: 300 µg/mL (≈ 608 µM)
[4]
  MIC: 300 µg/mL (≈ 608 µM)

## CC1(C)S[C@@H]2[C@H](NC(=O)Cc3ccccc3)C(=O)N2[C@H]1C(=O)O.CCN(CC)CCOC(=O)c1ccc(N)cc1 [procaine Penicilline G]
[1]
  MIC: 4 µg/mL
[5]
  minimal inhibitory concentration (MIC): 4

## Gentamycine
[1]
  MIC: 100 µg/mL
[2]
  minimal inhibitory concentration (MIC): 100 µg/mL
